Data as given in patent US20250352505A1, “COMPOSITIONS AND METHODS OF TREATING RESPIRATORY SYNCYTIAL VIRUS” (University of South Florida, priority 2023, published 2025).

Tests used:
[1] = system: panel of tumor cell lines; conditions: cited from earlier work
[2] = system: recombinant RSV encoding Renilla luciferase (rA2-Rluc); assay: RSV antiviral assay (Renilla luciferase reporter RSV in A549 cells); assay type: cell-based, respiratory syncytial virus; conditions: for activity against RSV (in words): inhibition of RSV gene expression / viral transcription; for IC50: rA2-Rluc in A549 cells, 24 h, luciferase activity, read-out: IC50 against RSV
Method: A549 (CCL-185, ATCC) cells were seeded at 1.6×10^4 cells in 100 μl of 5% FBS/1× penicillin-streptomycin/F12 medium per well in 96-well uClear® black plates with clear bottom (Greiner 655090). Cells were infected with 400 PFU/well of a recombinant RSV encoding Renilla luciferase as an additional transcription unit (rA2-Rluc^22) in total volume of 50 μL/well and allowed to adsorb for 1 h. Purified compounds were serially diluted two-fold in triplicate and 50 μL/well of the diluted extracts were added to the infected cells. After further incubation at 37° C. and 5% CO2 for 24 h, the supernatants were removed and cells were lysed using Renilla lysis buffer (Promega). Luciferase activity was measured with the Renilla Luciferase reagent (Promega) and BioTek Synergy Mx microplate luminometer using Gen5 version 2.00.18 software. RSV antiviral effect for test samples was determined by normalizing to DMSO-treated control samples and multiplying by 100 to obtain percent of control. Statistical analysis was performed using GraphPad Prism software version 9.4.1.

[3] = system: ESKAPE pathogens; assay: Antibacterial screening; assay type: cell-based; conditions: ESKAPE pathogens / bacterial screens
[4] = system: Candida strains; assay: Antifungal screening; assay type: cell-based; conditions: several Candida strains / fungal screens
[5] = system: HIV gene expression; conditions: cited from earlier work
[6] = system: MRSA; conditions: cited from earlier work

Compound	activity against RSV (in words) [2]	antibacterial activity [3]	antifungal activity [4]	further results
19-episuberitenone B				cytotoxicity against a panel of tumor cell lines [1]: weak cytotoxicity
CC(=O)OC1CC2(C)C=C3C4CC(=O)C(C)(CC4O)C3CC2C2(C)CCCC(C)(C)C12 (stereo not shown) [Compound 1, Neosuberitenone A]				viral inhibitory effects at 25 μg/mL ([2]; 25 μg/mL): did not show any viral inhibitory effects
CC(=O)OC1CC2(C)C(O)C(C3CC(=O)C(C)=CC3O)=CCC2C2(C)CCCC(C)(C)C12 (stereo not shown) [Compound 3, Suberitenone F]	active	inactive	inactive	
CC(=O)OC1CC2(C)C=C(C3CC(=O)C(C)=CC3O)CCC2C2(C)CCCC(C)(C)C12 (stereo not shown) [Compound 10, suberitenone A]	active	inactive	inactive	IC50 [2]: 7.9 µM
CC(=O)OC1CC2(C)CC(O)(C3CC(=O)C(C)=CC3O)CCC2C2(C)CCCC(C)(C)C12 (stereo not shown) [Compound 11, suberitenone B]	active	inactive	inactive	IC50 [2]: 3.5 µM
anvilone A				HIV gene expression [5]: turned on HIV gene expression
isosuberitenone B				cytotoxicity against a panel of tumor cell lines [1]: weak cytotoxicity
oxaspirosuberitenone				antibacterial activity against MRSA [6]: mild antibacterial activity
